Reference: patent publication US9316588B2, “Bioassay method for detecting physiologically active substance” (OTSUKA PHARMACEUTICAL CO., LTD., priority 2010, dated 2016)

How the values were obtained:
Type in all cases: cell-based
human V2R = biological target: T1, human V2R (Homo sapiens, UniProt P30518); assay: Detection of AVP and V2R antagonist by desensitization (calcium-containing medium, addition of AVP, then forskolin)
T1 construct: The human vasopressin receptor isoform 2 (V2R) cDNA cloned in pUC18 was recloned into a pEF2 vector to prepare pEFhV2R; expressed in transfected cells; host or cells: CHO cells, transient transfection with FuGENE6, then frozen
T1 sequence (P30518 1-309 isoform P30518-2): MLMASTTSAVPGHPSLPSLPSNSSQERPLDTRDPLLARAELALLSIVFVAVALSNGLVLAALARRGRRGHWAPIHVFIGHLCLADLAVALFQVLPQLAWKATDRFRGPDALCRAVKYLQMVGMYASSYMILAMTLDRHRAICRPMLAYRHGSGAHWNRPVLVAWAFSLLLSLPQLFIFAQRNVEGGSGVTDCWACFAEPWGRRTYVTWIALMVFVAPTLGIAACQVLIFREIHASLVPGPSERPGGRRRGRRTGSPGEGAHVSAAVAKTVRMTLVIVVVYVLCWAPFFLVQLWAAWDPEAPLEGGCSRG
Description: This method utilizes the desensitization of the cAMP dependent calcium channel to detect the activity of a V2R antagonist. […] In this state, the addition of forskolin that activates adenylate cyclase forms cAMP, which in turn activates the cAMP dependent calcium channel (e.g., CNG calcium). Thus, the calcium sensitive protein emits luminescence. […] In this state, the subsequent addition of […] desensitizes the once activated cAMP dependent calcium channel, which is no longer activated by the addition of forskolin.
1 ml (3×10^6 cells/ml) of the frozen cells prepared in 1 was thawed in a warm bath and suspended in 10 mL of a washing buffer. The suspension was centrifuged at 1000 rpm for 5 minutes. 12 mL of a culture buffer was added to the obtained precipitate, and 6 μL of 4 mM ViviRen was added thereto. The mixture was seeded at 50 μL/well into a 96-well plate. […] Subsequently, 10^−4 M forskolin was further added thereto at 50 μL/well, and the amount of luminescence was measured using a luminometer (FIG. 16).

human GLP-1 receptor [1] = biological target: T2, human GLP-1 receptor (Homo sapiens, UniProt P43220, L260F); assay: Aequorin luminescence in frozen CHO cell lines expressing human GLP-1 receptor, modified CNG channel and modified aequorin; conditions: even at a concentration 1 million times higher compared with the active forms of GLP-1; FIG. 24
T2 construct: The human GLP-1 receptor (GLP-1R) cDNA cloned in pUC18 was recloned into a pCIneo vector to prepare pCIneoGLP-1R; expressed in transfected cells; host or cells: CHO cell lines, transient transfection with FuGENE6, then frozen
T2 sequence (P43220 24-463 L260F): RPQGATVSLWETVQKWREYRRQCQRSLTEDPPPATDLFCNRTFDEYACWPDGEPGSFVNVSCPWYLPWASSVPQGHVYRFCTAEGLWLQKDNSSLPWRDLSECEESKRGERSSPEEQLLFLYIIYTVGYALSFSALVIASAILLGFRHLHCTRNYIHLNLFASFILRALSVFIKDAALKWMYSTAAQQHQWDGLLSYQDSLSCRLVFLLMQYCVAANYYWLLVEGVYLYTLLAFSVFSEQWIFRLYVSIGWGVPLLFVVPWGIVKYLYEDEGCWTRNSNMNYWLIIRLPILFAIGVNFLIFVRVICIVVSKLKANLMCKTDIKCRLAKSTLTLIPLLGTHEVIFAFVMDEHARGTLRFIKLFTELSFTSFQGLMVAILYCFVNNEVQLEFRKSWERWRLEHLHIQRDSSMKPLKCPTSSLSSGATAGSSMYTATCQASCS
Protocol: 1 ml (3×10^6 cells/ml) of the frozen cells prepared in 1 was thawed in a warm bath and suspended in 10 mL of a washing buffer.
(§1) 1 ml (3×10^6 cells/ml) of the frozen cells prepared in 1 was thawed in a warm bath and suspended in 10 mL of a washing buffer. The suspension was centrifuged at 1000 rpm for 5 minutes. 12 mL of a culture buffer was added to the obtained precipitate, and 6 μL of 4 mM ViviRen was added thereto.

human GLP-1 receptor [2] = biological target: T2, human GLP-1 receptor; assay: GLP-1 antagonist activity in CHO cells expressing human GLP-1 receptor, GLP-1 added after culture; conditions: 3 hours culture, then 10^-11 M GLP-1; FIG. 27
Protocol: as §1, with “Next, the activity of a GLP-1 antagonist was measured. 1 ml” for “1 ml”, “added thereto. The mixture was seeded at 90 μL/well into a 96-well plate.” for “added thereto.”
Exendin-4 (9-39) was added thereto at 10 μL/well, and the cells were cultured for 3 hours. 10^−11 M GLP-1 was added thereto at 10 μL/well, and the amount of luminescence was measured using a luminometer.

| Compound | reactivity of the kit (human GLP-1 receptor [1]) | other results |
| --- | --- | --- |
| Cc1ccccc1C(=O)Nc1ccc(C(=O)N2CCCC(O)c3cc(Cl)ccc32)c(C)c1 (stereo not drawn) [OPC-41061] | – | luminescence of forskolin after antagonist and AVP (human V2R; 10^-7 M AVP, then 10^-4 M forskolin, FIG. 16): the luminescence of forskolin was detected in a concentration dependent manner; inhibition of the action of added AVP (amount of luminescence) (human V2R; cells cultured 3 hours with compound in calcium-containing medium, then 10^-7 M AVP, FIG. 14): inhibited the action of added AVP in a concentration dependent manner |
| GIP: incretin acting on other receptors | hardly reacted | – |
| GLP-1 (9-36 amide) | hardly reacted | – |
| GLP-2: incretin acting on other receptors | hardly reacted | – |
| exendin-4 (9-39): GLP-1 receptor antagonist | – | inhibition of the agonistic action of added GLP-1 (human GLP-1 receptor [2]): inhibited the agonistic action of added GLP-1 in a concentration dependent manner |
